Test results taken from patent US7071293B1, “Alpha helical peptides with broad spectrum antimicrobial activity that are insensitive to salt” (priority 1999, dated 2006).
In brackets after ≈: the same amount, converted by molar mass. Several values for one entry are separate records, joined by “and”; a condition that tells them apart may be missing. Equal entries are not always repeated. Where two headings read alike, the source gives them in different places. Ends that are not written are not given here.

What was measured:
[1] = test system: Campylobacter jejuni; details: cited from earlier work
[2] = test system: Branhamella (Moraxella) catarrhalis; details: MIC range; Branhamella (Moraxella) catarrhalis (β-lactamase producer); cited from earlier work
[3] = test system: Neisseria meningitidis; details: cited from earlier work
[4] = test system: Streptococcus agalactiae; details: cited from earlier work
[5] = test system: Streptococcus pneumoniae; details: cited from earlier work
[6] = test system: Borrelia burgdorferi; details: cited from earlier work
[7] = test system: Bacillus spp.; details: cited from earlier work
[8] = test system: Neisseria gonorrhoeae; details: cited from earlier work; for MIC90: in µg/mL
[9] = test system: Streptococcus spp.; details: cited from earlier work
[10] = test system: Haemophilus influenzae; details: cited from earlier work; for MIC50 / MIC90: in µg/mL; for Range: MIC range
[11] = test system: Haemophilus parainfluenzae; details: cited from earlier work
[12] = test system: Staphylococcus aureus; details: cited from earlier work
[13] = test system: Campylobacter pylori; details: cited from earlier work
[14] = test system: Enterococcus faecium; details: cited from earlier work
[15] = test system: Enterococcus spp.; details: cited from earlier work
[16] = test system: Streptococcus pyogenes; details: in µg/mL; cited from earlier work
[17] = test system: Bordetella bronchiseptica; details: cited from earlier work
[18] = test system: Haemophilus ducreyi; details: cited from earlier work
[19] = test system: Listeria monocytogenes; details: cited from earlier work
[20] = test system: Bacteroides fragilis; details: cited from earlier work
[21] = test system: Mycoplasma pneumoniae; details: cited from earlier work
[22] = test system: Mycoplasma hominis; details: cited from earlier work
[23] = test system: P. aeruginosa MR 3007; details: MR 3007, pH 7.4
[24] = test system: vancomycin and methicillin-resistant Gram-positives
[25] = test system: P. aeruginosa PAO1; details: avg ± sem
[26] = test system: E. coli ML-35p; details: Table 13; for MIC E. coli [NaCl] High: high salt underlay (10 mM sodium phosphate buffer +100 mM NaCl, pH 7.4); for MIC E. coli [NaCl] Low: low salt underlay (10 mM sodium phosphate buffer, pH 7.4)
[27] = test system: MRSA ATCC 33591; details: ATCC 33591, pH 7.4
[28] = test system: S. aureus 930918-3; details: 930918-3, pH 7.4
[29] = test system: P. aeruginosa PAO1; test: Relative time for killing (luminescence measured at intervals); assay type: cell-based; details: peptide at ten times its EC50 (SMAP29X-18D 15.7 X, SMAP29X-14A 17.4 X), 25 mM ionic strength
[30] = Haemophilus influenzae (non β-lactamase producer)
[31] = Haemophilus influenzae (penicillin resistant)
[32] = Haemophilus influenzae (penicillin susceptible)
[33] = Haemophilus influenzae (β-lactamase producer)
[34] = Staphylococcus aureus (penicillin susceptible)
[35] = E.f 142-1498-1 (Enterococcus fecaelis), Van A (vancomycin-resistant)
[36] = E.f 142-6873-3 (Enterococcus fecaelis), Van B (vancomycin-resistant)

## CC[C@H]1OC(=O)[C@H](C)[C@@H](O[C@H]2C[C@@](C)(OC)[C@@H](O)[C@H](C)O2)[C@H](C)[C@@H](O[C@@H]2O[C@H](C)C[C@H](N(C)C)[C@H]2O)[C@](C)(O)C[C@@H](C)C(=O)[C@H](C)[C@@H](O)[C@]1(C)O [ERYTHROMYCIN, erythromycin]
[1]; MIC range
  Range: 0.5–8
[1]; in µg/mL
  MIC90: 4 and 2
[2]
  Range: 0.06–1 and 0.03–0.25 and 0.06–8
[3]; MIC range
  Range: 0.5–8
[3]
  MIC50: 1 mg/L (≈ 1.36 µM)
  MIC90: 8 mg/L (≈ 10.9 µM)
[4]; MIC range
  Range: 0.03–0.25 and 0.015–0.06
[4]
  MIC50: 0.03 mg/L (≈ 0.0409 µM)
  MIC90: 0.03 mg/L (≈ 0.0409 µM)
[5]; MIC range
  Range: 0.03–0.25 and 0.015–0.06 and 0.015–0.25
[5]; in µg/mL
  MIC50: 0.06 and 0.03
  MIC90: 0.03 and 0.06
[6]
  MIC50: 0.03 mg/L (≈ 0.0409 µM)
  MIC90: 0.06 mg/L (≈ 0.0818 µM)
[7]; MIC range
  Range: 0.03–2
[7]
  MIC90: 2 mg/L (≈ 2.73 µM)
[8]; MIC range, Neisseria gonorrhoeae (non β-lactamase producer)
  Range: 0.015–4 and 0.03–2
[8]; Neisseria gonorrhoeae (non β-lactamase producer)
  MIC90: 2 and 1
[8]; Neisseria gonorrhoeae (β-lactamase producer)
  MIC90: 2 and 4
[8]; Neisseria gonorrhoeae
  MIC90: 1
[9]
  MIC50: 0.03 mg/L (≈ 0.0409 µM)
[10]; [30]
  MIC50: 2 and 4
  MIC90: 4 and 8
[10]; [31]
  MIC50: 8
  MIC90: 16
  Range: 8–16
[10]; [32]
  MIC50: 8
  MIC90: 16
  Range: 0.25–16
[10]; [33]
  MIC50: 4 and 2
  MIC90: 8 and 4
[10]; Haemophilus influenzae
  MIC50: 2 and 1
  MIC90: 2 and 4
  Range: 0.5–8
[11]; MIC range
  Range: 0.5–8
[11]
  MIC50: 2 mg/L (≈ 2.73 µM)
  MIC90: 4 mg/L (≈ 5.45 µM)
[12]; Staphylococcus aureus (methicillin susceptible)
  MIC50: 0.5 mg/L (≈ 0.681 µM)
[12]; [34]
  MIC50: 0.5 mg/L (≈ 0.681 µM)
  MIC90: 0.5 mg/L (≈ 0.681 µM)
[12]; Staphylococcus aureus
  MIC50: 0.5 mg/L (≈ 0.681 µM)
[13]; MIC range
  Range: 0.25–16
[13]
  MIC50: 0.5 mg/L (≈ 0.681 µM)
[14]
  MIC50: 1 mg/L (≈ 1.36 µM)
[15]
  MIC50: 2 mg/L (≈ 2.73 µM)
[16]
  MIC50: 0.06 and 0.03
[17]; MIC range
  Range: 4–32
[17]
  MIC50: 8 mg/L (≈ 10.9 µM)
  MIC90: 32 mg/L (≈ 43.6 µM)
[18]
  MIC50: 0.004 mg/L (≈ 0.00545 µM)
  MIC90: 0.06 mg/L (≈ 0.0818 µM)
[19]
  MIC50: 0.5 mg/L (≈ 0.681 µM)
[20]; MIC range
  Range: 0.25–16
[20]
  MIC50: 1 mg/L (≈ 1.36 µM)
  MIC90: 8 mg/L (≈ 10.9 µM)

## CCC[C@@H]1C[C@@H](C(=O)N[C@@H]([C@H]2O[C@H](SC)[C@H](O)[C@@H](O)[C@H]2O)[C@@H](C)O)N(C)C1 [LINCOMYCIN, lincomycin]
[21]; MIC range
  Range: 2–32
[21]
  MIC50: 8 mg/L (≈ 19.7 µM)
  MIC90: 32 mg/L (≈ 78.7 µM)
[22]; MIC range
  Range: 0.5–16
[22]
  MIC50: 2 mg/L (≈ 4.92 µM)
  MIC90: 4 mg/L (≈ 9.84 µM)
[12]; MIC range, Staphylococcus aureus
  Range: 0.5–512
[12]; Staphylococcus aureus
  MIC50: 1 mg/L (≈ 2.46 µM)
  MIC90: 1 mg/L (≈ 2.46 µM)

## KNLRRIIRKIIHIIKKYG [SMAP29X-18D]
[23]
  MIC P. aeruginosa [NaCl] High: 0.5 mg/L
  MIC P. aeruginosa [NaCl] Low: 1.1 mg/L
[24]; [35]
  MIC: 32 mg/L
[24]; [36]
  MIC: 64 mg/L
[25]; ionic strength 25 mM
  EC50 P. aeruginosa PAO1: 0.29 ± 0.01 mg/L
[25]; ionic strength 175 mM
  EC50 P. aeruginosa PAO1: 0.58 ± 0.05 mg/L
[26]
  MIC E. coli [NaCl] High: 0.5 mg/L
  MIC E. coli [NaCl] Low: 0.8 mg/L
[27]
  MIC MRSA [NaCl] High: 0.8 mg/L
  MIC MRSA [NaCl] Low: 8.7 mg/L
[28]
  MIC S. aureus [NaCl] High: 1.4 mg/L
  MIC S. aureus [NaCl] Low: 2.0 mg/L
[29]
  Half-time of Killing (min. avg. ± sem): 2.9 min

## LRRIIRKIIHIIKK-NH2 [SMAP29X-14A]
[23]
  MIC P. aeruginosa [NaCl] High: 2.7 mg/L
  MIC P. aeruginosa [NaCl] Low: 2.0 mg/L
[24]; [35]
  MIC: >64 mg/L
[24]; [36]
  MIC: >64 mg/L
[25]; ionic strength 25 mM
  EC50 P. aeruginosa PAO1: 0.23 ± 0.03 mg/L
[25]; ionic strength 175 mM
  EC50 P. aeruginosa PAO1: 1.59 ± 0.22 mg/L
[26]
  MIC E. coli [NaCl] High: 0.9 mg/L
  MIC E. coli [NaCl] Low: 2.9 mg/L
[27]
  MIC MRSA [NaCl] High: >79.1 mg/L
  MIC MRSA [NaCl] Low: 7.6 mg/L
[28]
  MIC S. aureus [NaCl] High: 1.9 mg/L
  MIC S. aureus [NaCl] Low: 1.1 mg/L
[29]
  Half-time of Killing (min. avg. ± sem): 20.9 min
